According to US8759340B2, “Benzodiazepinone compounds useful in the treatment of skin conditions” (The Regents of the University of Michigan, priority 2007, dated 2014):
Entries after “also recorded” stand apart in the source; their conditions may differ.

Experiments:
Ramos cells = assay: Cytotoxicity against Ramos cells; format: cell-based; conditions: Homo sapiens, read-out: EC50 in causing death of Ramos cells
Text: The compounds described herein can be tested for activity against F1F0-ATPase by measuring ATP synthesis and ATP hydrolysis. In addition, the compounds described herein can be evaluated for cytotoxicity against Ramos cells. Inhibition of ATP synthesis and hydrolysis by the F1F0-ATPase and cytotoxicity in Ramos cells can be measured as described in K. M. Johnson et al. in Chemistry & Biology (2005) Vol. 12, pp. 485-496.

human keratinocytes (KC) = assay: Keratinocyte proliferation assay; format: cell-based; conditions: Homo sapiens, Keratinocyte; for inhibition at 0.05 µM / inhibition at 0.1 µM / inhibition at 0.5 µM / inhibition at 1 µM / inhibition at 5 µM / inhibition at 10 µM: 48 h, KC, day 2, read-out: Percent Inhibition of Cells Per Concentration of Test Compound
Description: Epidermal keratinocytes were isolated from fresh tissue biopsies as described previously (Varani et al., (1994) J. Clin. Invest. 94:1747-1753). Primary and early passage cells were maintained in Keratinocyte Growth Medium (KGM) (Lonza). KGM contains the same basal medium as KBM but is further supplemented with a mixture of growth factors including 0.1 ng per mL EGF, 0.5 μg per mL insulin, and 0.4% bovine pituitary extract. In addition to using low-passage keratinocytes, we also used the HaCat line of immortalized human epidermal keratinocytes in some experiments. The immortalized keratinocytes were handled exactly as low-passage keratinocytes.
(§1) Keratinocyte proliferation was assessed by seeding 4×10^4 cells per well in a 24-well plate using KGM as culture medium. After the cells had attached (overnight), they were washed and triplicate samples were harvested for zero-time counts. DMSO served as a negative control. Proliferation was measured on day 2 by releasing the cells with trypsin/EDTA and enumerating them using a particle counter (Coulter Electronics, Hialeah, Fla.). Fibroblast proliferation studies were conducted in a similar manner except that […] was used as culture medium.
(§2) KC refers to human keratinocytes. HFF refers to human foreskin fibroblasts. The cLogP values were calculated using ChemDraw™ (CambridgeSoft).

[1] = system: human foreskin fibroblasts (HFF); assay: Fibroblast proliferation assay; format: cell-based; conditions: Homo sapiens; for inhibition at 1 µM / inhibition at 0.05 µM / inhibition at 0.1 µM / inhibition at 0.5 µM / inhibition at 5 µM / inhibition at 10 µM: 48 h, HFF, day 2, read-out: Percent Inhibition of Cells Per Concentration of Test Compound
Description: Fibroblasts obtained from the same tissue were grown in monolayer culture using Dulbecco's modified minimal essential medium supplemented with nonessential amino acids and 10% fetal bovine serum (DMEM-FBS) as culture medium. Both keratinocytes and fibroblasts were maintained at 37° C. in an atmosphere of 95% air and 5% CO2. Cells were subcultured by exposure to trypsin/ethylenediamine tetraacetic acid (EDTA) and used at passage 2-4.
as §1, §2

[2] = system: Human Skin Organ Cultures; assay: Toxicity (epidermal necrosis) in human skin organ cultures; format: cell-based; conditions: necrosis on 0 to 4+ scale, scores ≦1 normal, 8 days organ culture, n=6
Text: (§3) Replicate 6-mm punch biopsies of full-thickness psoriatic plaque skin were obtained from human skin donors with psoriasis. These biopsies were used in the transplant studies. Six-mm punch biopsies of sun-protected (hip) skin from non-psoriatic donors were obtained as controls. In addition, replicate 2-mm full-thickness punch biopsies of sun-protected hip skin were obtained from normal donors for use in organ culture studies.
(§4) Immediately upon biopsy, the replicate 2-mm punch biopsies (non-psoriatic skin only) were immersed in culture medium consisting of Keratinocyte Basal Medium (KBM) (Lonza, Walkersville, Md.). KBM is a low-Ca^2+, serum-free modification of MCDB-153 medium. It was supplemented with CaCl2 to bring the final Ca^2+ concentration to 1.4 mM. Biopsies were incubated in wells of a 24-well dish containing 400 μl of Ca^2+-supplemented KBM with or without additional treatments (RA and/or Compound H). Cultures were incubated at 37° C. in an atmosphere of 95% air and 5% CO2. Other than to maintain the tissue in a minimal volume of medium, nothing further was done to ensure a strict air-liquid interface. Incubation was for 8 days, with change of medium and fresh treatments provided every second day. At the end of the incubation period, tissue was fixed in 10% buffered formalin and examined histologically after staining with hematoxylin and eosin. Routinely, 3-6 tissue sections were prepared from each block. Epidermal thickness measurements were made at several sites in each tissue section (distance from the dermal-epidermal juncture to the top of the viable portion of the epithelium). The organ culture procedure employed here has been described in the past (Varani et al. (1993) Amer. J. Pathol. 142:189-198; and Varani et al., (1994) J. Clin. Invest. 94:1747-1753). In order to evaluate the toxicity of compound H, tissue was examined histologically and necrosis was assessed on a 0 to 4+ scale, with 0 indicating no change from control and 4+ indicating complete necrosis of the epidermis (n=6). Scores ≦1 were taken as normal.

[3] = system: RA-induced epidermal hyperplasia; assay: Inhibition of RA-induced epidermal hyperplasia in human skin organ cultures; format: cell-based; conditions: reduction in epidermal thickness vs RA alone, n=3
Text: as §3, §4
The average epidermal thickness in the absence of RA was 70-90 μm, while the average epidermal thickness was 275 μm in cells exposed to RA.

Compound | inhibition at 0.05 µM (human keratinocytes (KC)) | inhibition at 0.1 µM (human keratinocytes (KC)) | inhibition at 0.5 µM (human keratinocytes (KC)) | inhibition at 1 µM (human keratinocytes (KC)) | inhibition at 5 µM (human keratinocytes (KC)) | inhibition at 10 µM (human keratinocytes (KC)) | inhibition at 1 µM [1] | inhibition at 0.05 µM ([1]; Fibroblast) | inhibition at 0.1 µM ([1]; Fibroblast) | inhibition at 0.5 µM ([1]; Fibroblast) | inhibition at 5 µM ([1]; Fibroblast) | inhibition at 10 µM ([1]; Fibroblast) | other results
Cc1ccccc1CC1N=C(c2ccc(F)cc2)c2cc(Cl)ccc2NC1=O (centres unmarked) [7-Chloro-5-(4-fluorophenyl)-3-(2-methylbenzyl)-1H-benzo[e][1,4]diazepin-2(3H)-one] | – | – | – | – | – | – | – | – | – | – | – | – | EC50 (Ramos cells): 7900 nM
CCc1ccc(CC2N=C(c3ccc(F)cc3)c3cc(Cl)ccc3NC2=O)cc1CC (centres unmarked) [Compound 11, (Z)-7-Chloro-3-(3,4-diethylbenzyl)-5-(4-fluorophenyl)-1H-benzo[e][1,4]diazepin-2(3H)-one] | < 20% | < 20% | < 20% | < 20% | ≥ 90% | ≥ 90% | < 20% | < 20% | < 20% | < 20% | < 20% | ≥ 90% | melting point: 88 to 90 °C
Cc1cccc(C)c1CC1N=C(c2ccc(O)cc2)c2cc(Cl)ccc2N(C)C1=O (centres unmarked) [Compound 1, (Z)-7-chloro-3-(2,6-dimethylbenzyl)-5-(4-hydroxyphenyl)-1-methyl-1H-benzo[e][1,4]diazepin-2(3H)-one] | < 20% | < 20% | < 20% | ≥ 20% | ≥ 90% | ≥ 90% | < 20% | < 20% | < 20% | < 20% | ≥ 90% | ≥ 90% | Toxicity ([2]; 0.5 μM compound H, listed as Compound H): no detectable toxicity; also recorded: None detected; Toxicity ([2]; 1.0 μM compound H, listed as Compound H): no detectable toxicity; also recorded: None detected; Toxicity ([2]; 2.0 μM compound H, listed as Compound H): 2.0 + 0.5; Toxicity ([2]; 2.0 μM compound H, listed as compound H): Slight toxicity; Percent Reduction in Retinoid-Induced Hyperplasia (%) ([3]; 0.5 μM compound H): 40 + 10%; Percent Reduction in Retinoid-Induced Hyperplasia (%) ([3]; 1.0 μM compound H): 48 + 15%; Percent Reduction in Retinoid-Induced Hyperplasia (%) ([3]; 2.0 μM compound H): >95%; EC50 (human keratinocytes (KC); based on the data from the cell proliferation assays, read-out: EC50 against proliferation of human keratinocyte cells): 700 ± 100 nM; EC50 ([1]; Fibroblast, based on the data from the cell proliferation assays, read-out: EC50 against proliferation of human foreskin fibroblasts): 1400 ± 300 nM
